For one experiment, the system named is Botrytis cinerea. Briefly: Antifungal activity against Botrytis cinerea Pers. The class given is functional, organism-based.
The next experiment has as its system Sclerotinia sclerotiorum. Nature of the experiment: Antifungal activity against Sclerotinia sclerotiorum. The class given is functional, organism-based.
The subject of the next experiment is HL-60. Briefly: Antitumor activity against human HL60 cells at 100 ug/mL by MTT method. The class given is functional. For orientation: Formazan colour is commonly taken as a measure of viable cells.
Another experiment has as its system BGC-823. Briefly: Antitumor activity against human BGC823 cells at 100 ug/mL by SRB method. It counts as functional.
The next experiment concerns Bel-7402. Briefly: Antitumor activity against human Bel7402 cells at 100 ug/mL by SRB method. It counts as functional. (In general: Sulforhodamine B stains cellular protein and so reports cell mass.)
Another experiment has as its system KB. Nature of the experiment: Antitumor activity against human KB cells at 100 ug/mL by SRB method. The class given is functional.

Values after ≈ are worked out from the molar mass of the structure shown.

For orientation: EC50 means the concentration that produces a half-maximal response. Read a high EC50 as weaker potency. In general, inhibition refers to the drop in the measured response relative to a control, in per cent. With `O=C1CCCCCC1S(=O)(=O)Nc1cc(C(F)(F)F)cc(C(F)(F)F)c1` (centres undefined), the half-maximal effective concentration (EC50) stood at 2.43 mg/L (≈ 6.02 µM) with Botrytis cinerea and 8.05 mg/L (≈ 20 µM) with Sclerotinia sclerotiorum. Also, the inhibition at 100 µg/mL came to 95.8% with HL-60, 57% with BGC-823, 45.3% in the experiment on Bel-7402 and 59% with KB.
With `Cc1ccc(NS(=O)(=O)C2CCCCC2=O)cc1` (centres undefined), the half-maximal effective concentration (EC50) in the experiment on Botrytis cinerea worked out at 21.2 mg/L (≈ 79.4 µM); in the experiment on Sclerotinia sclerotiorum it was 116 mg/L (≈ 434 µM). For the same compound, the inhibition at 100 µg/mL with HL-60 was -3.55%; with BGC-823, 32%; with Bel-7402 it was 27.5%; in the experiment on KB, -22.2%.
With `O=C1CCCCC1S(=O)(=O)Nc1ccccc1Cl` (centres undefined), the values for the concentration for a half-maximal effect (EC50) in the experiment with Botrytis cinerea and in the experiment with Sclerotinia sclerotiorum were 35.2 mg/L (≈ 122 µM) and 69.4 mg/L (≈ 241 µM), respectively. Further, the inhibition at 100 µg/mL in the experiment with HL-60 was 0.29%; in the experiment on BGC-823, 29.2%; in the experiment with Bel-7402 it was 1.98%; in the experiment with KB it was -10.1%.
As for `Cc1cc(F)ccc1NS(=O)(=O)C1CCCCC1=O` (centres undefined), the concentration for a half-maximal effect (EC50) was 37.7 mg/L (≈ 132 µM) in the experiment with Botrytis cinerea and 137 mg/L (≈ 480 µM) in the experiment on Sclerotinia sclerotiorum. The inhibition at 100 µg/mL with HL-60 is -0.99%; with BGC-823 it was 28.7%; with Bel-7402, 3.22%; in the experiment with KB it was -3.72%.
With `O=C1CCCCC1S(=O)(=O)Nc1ccc(Cl)cc1` (centres undefined), the half-maximal effective concentration (EC50) stood at 17 mg/L (≈ 59 µM) in the experiment with Botrytis cinerea and 53.4 mg/L (≈ 186 µM) in the experiment with Sclerotinia sclerotiorum. Moreover, the inhibition at 100 µg/mL with HL-60 was -13%; in the experiment with BGC-823 it was 16%; with Bel-7402, 4.47%; with KB, -3.83%.
Turning to `COc1cc(OC)nc(NS(=O)(=O)C2CCCCC2=O)n1` (centres undefined), the EC50 with Botrytis cinerea is 28.6 mg/L (≈ 90.8 µM); in the experiment with Sclerotinia sclerotiorum, 197 mg/L (≈ 626 µM). The inhibition at 100 µg/mL in the experiment on HL-60 came to 2.62%; in the experiment with BGC-823, 26.4%; in the experiment on Bel-7402, 39.3%; in the experiment with KB, 2.73%.
For `Cc1ccc(NS(=O)(=O)C2CCCCC2=O)c(C)c1` (centres undefined), the values for the 50% effective concentration (EC50) in the experiment with Botrytis cinerea and with Sclerotinia sclerotiorum were 17 mg/L (≈ 60.3 µM) and 112 mg/L (≈ 397 µM), respectively. In addition, the inhibition at 100 µg/mL in the experiment with HL-60 worked out at 12.2%; in the experiment with BGC-823, 15.6%; with Bel-7402, 0.52%; in the experiment with KB, 7.97%.
As to `O=C1CCCCC1S(=O)(=O)Nc1cc(C(F)(F)F)ccc1C(F)(F)F` (centres undefined), the half-maximal effective concentration (EC50) with Botrytis cinerea worked out at 3.66 mg/L (≈ 9.4 µM); with Sclerotinia sclerotiorum, 70.5 mg/L (≈ 181 µM). The inhibition at 100 µg/mL in the experiment with HL-60 amounted to 95.7%; in the experiment on BGC-823, 57.7%; with Bel-7402, 68.3%; with KB it was 68.6%.
On to `N#Cc1c(Cl)c(Cl)c(Cl)c(C#N)c1Cl` [CHLOROTHALONIL], for which the concentration giving a half-maximal response (EC50) in the experiment on Sclerotinia sclerotiorum worked out at 7.16 mg/L (≈ 26.9 µM).
Regarding `O=C1CCCCC1S(=O)(=O)Nc1ccc(Cl)cc1C(F)(F)F` (centres undefined), the figures for the EC50 in the experiment on Botrytis cinerea and in the experiment on Sclerotinia sclerotiorum were 2.12 mg/L (≈ 5.96 µM) and 47.5 mg/L (≈ 134 µM), respectively. For the same compound, the inhibition at 100 µg/mL is 78.6% in the experiment on HL-60, 36.4% in the experiment on BGC-823, 20.9% in the experiment on Bel-7402 and 11.2% in the experiment on KB.
Turning to `Cc1cccc(NS(=O)(=O)C2CCCCC2=O)c1C` (centres undefined), the concentration for a half-maximal effect (EC50) in the experiment on Botrytis cinerea was 24.2 mg/L (≈ 86 µM); in the experiment with Sclerotinia sclerotiorum, 59.3 mg/L (≈ 211 µM). The inhibition at 100 µg/mL in the experiment on HL-60 is 9.38%; in the experiment with BGC-823 it was 24.5%; with Bel-7402, 21.8%; in the experiment with KB, -20.6%.
Consider `O=C1CCCCC1S(=O)(=O)Nc1ccc(Cl)c(Cl)c1` (centres undefined), for which the concentration for a half-maximal effect (EC50) was 7.23 mg/L (≈ 22.4 µM) in the experiment with Botrytis cinerea and 24.2 mg/L (≈ 75.2 µM) with Sclerotinia sclerotiorum. Moreover, the inhibition at 100 µg/mL was found to be 13.5% in the experiment with HL-60, 5.54% with BGC-823, 1.39% in the experiment with Bel-7402 and 17.8% in the experiment with KB.
Take `O=C1CCCCC1S(=O)(=O)N1CCOCC1` (centres undefined): the EC50 is 85.2 mg/L (≈ 345 µM) in the experiment with Botrytis cinerea and 331 mg/L (≈ 1340 µM) in the experiment with Sclerotinia sclerotiorum. Also, the inhibition at 100 µg/mL in the experiment on HL-60 is 11%; with BGC-823, 21.3%; in the experiment on Bel-7402 it was 6.01%; in the experiment with KB it was -4.35%.
Regarding `O=C1CCCCCC1S(=O)(=O)Nc1ccc(Cl)c(Cl)c1` (centres undefined), the EC50 was 2.38 mg/L (≈ 7.08 µM) with Botrytis cinerea and 16.4 mg/L (≈ 48.7 µM) in the experiment with Sclerotinia sclerotiorum. Besides, the inhibition at 100 µg/mL in the experiment on HL-60 was 15%; in the experiment with BGC-823 it was 28.9%; in the experiment with Bel-7402, 4.03%; in the experiment on KB, -6.3%.
For `Cc1cccc(NS(=O)(=O)C2CCCCCC2=O)c1C` (centres undefined), the EC50 in the experiment on Botrytis cinerea is 11.6 mg/L (≈ 39.3 µM); in the experiment on Sclerotinia sclerotiorum it was 47.6 mg/L (≈ 161 µM). In addition, the inhibition at 100 µg/mL in the experiment on HL-60 was found to be 22.9%; in the experiment with BGC-823, 23.8%; with Bel-7402, 12.1%; in the experiment on KB it was 2.01%.
In the case of `CC12CC1(C)C(=O)N(c1cc(Cl)cc(Cl)c1)C2=O` (centres undefined) [PROCYMIDONE], a half-maximal response in the experiment with Botrytis cinerea (EC50) required 2.45 mg/L (≈ 8.62 µM).
As for `O=C1CCCCC1S(=O)(=O)Nc1ccccc1Br` (centres undefined), the EC50 in the experiment on Botrytis cinerea amounted to 50.6 mg/L (≈ 152 µM); in the experiment on Sclerotinia sclerotiorum, 47.8 mg/L (≈ 144 µM). Besides, the inhibition at 100 µg/mL with HL-60 was 15.3%; in the experiment with BGC-823, 29.6%; in the experiment on Bel-7402, 22.1%; in the experiment on KB it was -14.4%.
Consider `O=C1CCCCC1S(=O)(=O)Nc1cc(C(F)(F)F)cc(C(F)(F)F)c1` (centres undefined), for which the concentration giving a half-maximal response (EC50) with Botrytis cinerea was determined as 3.96 mg/L (≈ 10.2 µM); in the experiment on Sclerotinia sclerotiorum, 24.1 mg/L (≈ 62 µM). The inhibition at 100 µg/mL in the experiment on HL-60 was 95.9%; in the experiment with BGC-823, 70.8%; in the experiment on Bel-7402, 66.9%; in the experiment with KB it was 76%.
Regarding `O=C1CCCCC1S(=O)(=O)Nc1cccc(C(F)(F)F)c1` (centres undefined), the EC50 with Botrytis cinerea was 85.2 mg/L (≈ 265 µM); with Sclerotinia sclerotiorum it was 144 mg/L (≈ 448 µM). The inhibition at 100 µg/mL in the experiment with HL-60 is 17%; with BGC-823 it was 21.6%; with Bel-7402, 11.4%; in the experiment on KB, -6.3%.

(Values after ChEMBL document CHEMBL1149877, “Synthesis and biological activities of 2-oxocycloalkylsulfonamides” (Bioorg Med Chem, 2008).)
